Measured values reported in patent US20250215012A1, “IKZF2 DEGRADERS AND USES THEREOF” (REGENTS OF THE UNIVERSITY OF MICHIGAN, priority 2022, published 2025).

Molecular target: IKZF2 (Homo sapiens (Human), UniProt Q96SW2+Q9UKS7)
Assay: IKZF2 HiBiT Assay (Jurkat-IKZF2-HiBiT cell line)
Assay type: cell-based
Conditions: Jurkat-IKZF2-HiBiT cells, 24 hours; for DC50: read-out: HiBit assay degradation analysis DC50; for Dmax: read-out: HiBit assay degradation analysis Dmax
In short: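 IKZF2 degradation was assessed as HiBiT luminescence in Jurkat-IKZF2-HiBiT cells, using lytic detection after 24 h of compound treatment at 37 °C, 5% CO2.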

IKZF2, sequence (Q9UKS7 whole entry): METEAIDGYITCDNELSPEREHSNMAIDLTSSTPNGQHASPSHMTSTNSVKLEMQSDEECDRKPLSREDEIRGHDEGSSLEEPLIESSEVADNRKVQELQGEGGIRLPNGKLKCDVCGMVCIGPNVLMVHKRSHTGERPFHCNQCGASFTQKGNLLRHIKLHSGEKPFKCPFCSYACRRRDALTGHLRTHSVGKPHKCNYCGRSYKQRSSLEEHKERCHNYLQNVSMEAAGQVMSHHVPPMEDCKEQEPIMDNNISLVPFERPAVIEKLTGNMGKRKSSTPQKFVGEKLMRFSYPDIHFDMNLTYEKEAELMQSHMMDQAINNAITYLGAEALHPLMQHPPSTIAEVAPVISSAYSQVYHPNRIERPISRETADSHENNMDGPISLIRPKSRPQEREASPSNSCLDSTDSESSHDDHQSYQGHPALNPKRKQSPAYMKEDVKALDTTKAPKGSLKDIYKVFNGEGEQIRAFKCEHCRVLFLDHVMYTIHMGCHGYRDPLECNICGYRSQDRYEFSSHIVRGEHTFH
IKZF2, sequence (Q96SW2 whole entry): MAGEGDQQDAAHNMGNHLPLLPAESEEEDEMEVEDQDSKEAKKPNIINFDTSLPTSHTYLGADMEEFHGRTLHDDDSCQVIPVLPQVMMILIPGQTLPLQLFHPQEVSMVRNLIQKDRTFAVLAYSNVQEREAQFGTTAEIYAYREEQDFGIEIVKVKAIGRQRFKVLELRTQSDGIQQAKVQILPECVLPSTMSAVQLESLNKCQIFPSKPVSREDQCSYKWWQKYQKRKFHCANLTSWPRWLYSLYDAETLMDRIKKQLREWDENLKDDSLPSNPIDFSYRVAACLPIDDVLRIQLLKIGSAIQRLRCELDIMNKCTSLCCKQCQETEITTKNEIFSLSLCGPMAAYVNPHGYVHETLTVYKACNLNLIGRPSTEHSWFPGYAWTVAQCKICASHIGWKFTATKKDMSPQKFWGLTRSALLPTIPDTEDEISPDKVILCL
IKZF2, sequence (Q16531 whole entry partner): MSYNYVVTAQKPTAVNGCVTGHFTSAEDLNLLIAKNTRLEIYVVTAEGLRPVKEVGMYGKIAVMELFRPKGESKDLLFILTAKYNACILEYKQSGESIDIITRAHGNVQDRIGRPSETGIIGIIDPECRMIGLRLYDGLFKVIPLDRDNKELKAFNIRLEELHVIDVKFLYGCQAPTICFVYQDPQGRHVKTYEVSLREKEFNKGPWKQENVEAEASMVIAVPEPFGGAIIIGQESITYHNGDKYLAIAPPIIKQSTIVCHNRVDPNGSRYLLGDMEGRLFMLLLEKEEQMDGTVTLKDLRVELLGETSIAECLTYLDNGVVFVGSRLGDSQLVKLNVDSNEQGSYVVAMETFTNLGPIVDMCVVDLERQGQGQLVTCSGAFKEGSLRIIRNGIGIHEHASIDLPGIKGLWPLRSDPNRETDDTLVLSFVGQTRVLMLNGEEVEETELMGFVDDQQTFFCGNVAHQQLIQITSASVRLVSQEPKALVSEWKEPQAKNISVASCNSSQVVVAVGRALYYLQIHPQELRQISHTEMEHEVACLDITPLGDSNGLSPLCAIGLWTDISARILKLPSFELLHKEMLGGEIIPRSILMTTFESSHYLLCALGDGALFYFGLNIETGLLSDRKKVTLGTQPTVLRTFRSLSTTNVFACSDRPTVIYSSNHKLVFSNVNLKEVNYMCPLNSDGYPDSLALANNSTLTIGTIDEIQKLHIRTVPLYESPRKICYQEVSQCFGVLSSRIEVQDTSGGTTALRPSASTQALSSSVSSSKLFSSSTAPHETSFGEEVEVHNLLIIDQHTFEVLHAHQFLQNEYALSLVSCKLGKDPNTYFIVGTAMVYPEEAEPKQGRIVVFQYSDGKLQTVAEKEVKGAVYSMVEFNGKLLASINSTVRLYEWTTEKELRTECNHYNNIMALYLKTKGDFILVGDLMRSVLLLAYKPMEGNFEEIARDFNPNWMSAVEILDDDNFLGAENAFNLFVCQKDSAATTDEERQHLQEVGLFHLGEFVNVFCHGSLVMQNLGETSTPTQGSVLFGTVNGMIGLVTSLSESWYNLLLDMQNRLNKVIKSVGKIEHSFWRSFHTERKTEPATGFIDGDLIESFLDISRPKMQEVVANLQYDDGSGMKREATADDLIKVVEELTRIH

| Structure (SMILES) | DC50 [nM] | Dmax [%] |
| --- | --- | --- |
| O=C1CC[C@H](N2Cc3c(ccc4c3OCC43CCN(Cc4cc(F)cc(-c5cnn(C6COC6)c5)c4)CC3)C2=O)C(=O)N1 [Compound A276, (S)-3-(1′-(3-fluoro-5-(1-(oxetan-3-yl)-1H-pyrazol-4-yl)benzyl)-6-oxo-6,8-dihydro-2H,7H-spiro[furo[2,3-e]isoindole-3,4′-piperidin]-7-yl)piperidine-2,6-dione] | < 50 | 40 to 60 |
| O=C1CCC(N2Cc3c(ccc4c3OCC43CCN(Cc4ccc(Cl)cc4F)CC3)C2=O)C(=O)N1 (centres unmarked) [Compound A4, 3-(1′-(4-chloro-2-fluorobenzyl)-6-oxo-6,8-dihydro-2H,7H-spiro[furo[2,3-e]isoindole-3,4′-piperidin]-7-yl)piperidine-2,6-dione] | > 500 | 40 to 60 |
| Cn1cnc2ccc(CN3CCC4(CC3)COc3c4ccc4c3CN(C3CCC(=O)NC3=O)C4=O)cc21 (centres unmarked) [Compound A72, 3-(1′-((1-methyl-1H-benzo[d]imidazol-6-yl)methyl)-6-oxo-6,8-dihydro-2H,7H-spiro[furo[2,3-e]isoindole-3,4′-piperidin]-7-yl)piperidine-2,6-dione] | > 500 | 40 to 60 |
| O=C1CCC(N2Cc3c(ccc4c3OCC43CCN(Cc4ccc5cccnc5c4)CC3)C2=O)C(=O)N1 (centres unmarked) [Compound A64, 3-(6-oxo-1′-(quinolin-7-ylmethyl)-6,8-dihydro-2H,7H-spiro[furo[2,3-e]isoindole-3,4′-piperidin]-7-yl)piperidine-2,6-dione] | 50 to 200 | 60 to 80 |
| Cn1ccc(-c2cccc(CN3CCC4(CC3)COc3c4ccc4c3CN([C@H]3CCC(=O)NC3=O)C4=O)c2)n1 [Compound A267, (S)-3-(1′-(3-(1-methyl-1H-pyrazol-3-yl)benzyl)-6-oxo-6,8-dihydro-2H,7H-spiro[furo[2,3-e]isoindole-3,4′-piperidin]-7-yl)piperidine-2,6-dione] | < 50 | 60 to 80 |
| O=C1CCC(N2Cc3c(ccc4c3OCC43CCN(C[C@H]4C[C@H](Oc5ccc(F)cc5)C4)CC3)C2=O)C(=O)N1 (some centres unmarked) [Compound A356, 3-(1′-(((1r,3r)-3-(4-fluorophenoxy)cyclobutyl)methyl)-6-oxo-6,8-dihydro-2H,7H-spiro[furo[2,3-e]isoindole-3,4′-piperidin]-7-yl)piperidine-2,6-dione] | > 500 |  |
| O=C1CCC(N2Cc3c(ccc4c3OCC43CCN(Cc4cnn(S(=O)(=O)c5cccc(Cl)c5)c4)CC3)C2=O)C(=O)N1 [Compound A350, (S)-3-(1′-((1-((3-chlorophenyl)sulfonyl)-1H-pyrazol-4-yl)methyl)-6-oxo-6,8-dihydro-2H,7H-spiro[furo[2,3-e]isoindole-3,4′-piperidin]-7-yl)piperidine-2,6-dione] | < 50 |  |
| O=C1CC[C@H](N2Cc3c(ccc4c3OCC43CCN(Cc4cccc(-c5cnn(C(F)(F)F)c5)c4)CC3)C2=O)C(=O)N1 [Compound A282, (S)-3-(6-oxo-1′-(3-(1-(trifluoromethyl)-1H-pyrazol-4-yl)benzyl)-6,8-dihydro-2H,7H-spiro[furo[2,3-e]isoindole-3,4′-piperidin]-7-yl)piperidine-2,6-dione] | < 50 | 60 to 80 |
| O=C1CC[C@H](N2Cc3c(ccc4c3OCC43CCN(Cc4cccc(NC(=O)C(F)(F)F)c4)CC3)C2=O)C(=O)N1 [Compound A278, (S)-N-(3-((7-(2,6-dioxopiperidin-3-yl)-6-oxo-7,8-dihydro-2H,6H-spiro[furo[2,3-e]isoindole-3,4′-piperidin]-1′-yl)methyl)phenyl)-2,2,2-trifluoroacetamide] | < 50 | > 80 |
| O=C1CCC(N2Cc3c(ccc4c3OCC43CCN(Cc4cnn(CC5COC5)c4)CC3)C2=O)C(=O)N1 (centres unmarked) [Compound A319, 3-(1′-((1-(oxetan-3-ylmethyl)-1H-pyrazol-4-yl)methyl)-6-oxo-6,8-dihydro-2H,7H-spiro[furo[2,3-e]isoindole-3,4′-piperidin]-7-yl)piperidine-2,6-dione] | > 500 | < 40 |
| CC1(C)CCc2cccc(CN3CCC4(CC3)COc3c4ccc4c3CN(C3CCC(=O)NC3=O)C4=O)c2O1 (centres unmarked) [Compound A327, 3-(1′-((2,2-dimethylchroman-8-yl)methyl)-6-oxo-6,8-dihydro-2H,7H-spiro[furo[2,3-e]isoindole-3,4′-piperidin]-7-yl)piperidine-2,6-dione] | 50 to 200 | 60 to 80 |
| O=C1CCC(N2Cc3c(ccc4c3OCC43CCN(Cc4ccc5cc[nH]c5n4)CC3)C2=O)C(=O)N1 (centres unmarked) [Compound A66, 3-(1′-((1H-pyrrolo[2,3-b]pyridin-6-yl)methyl)-6-oxo-6,8-dihydro-2H,7H-spiro[furo[2,3-e]isoindole-3,4′-piperidin]-7-yl)piperidine-2,6-dione] | > 500 | 40 to 60 |
| O=C1CCC(N2Cc3c(ccc4c3OCC43CCN(Cc4cnc5c(c4)CCCC5)CC3)C2=O)C(=O)N1 (centres unmarked) [Compound A325, 3-(6-oxo-1′-((5,6,7,8-tetrahydroquinolin-3-yl)methyl)-6,8-dihydro-2H,7H-spiro[furo [2,3-e]isoindole-3,4′-piperidin]-7-yl)piperidine-2,6-dione] | > 500 | < 40 |
| O=C1CCC(N2Cc3c(ccc4c3OCC43CCN(Cc4ccc(-c5ccccc5)cc4)CC3)C2=O)C(=O)N1 (centres unmarked) [Compound A25, 3-(1′-([1,1′-biphenyl]-4-ylmethyl)-6-oxo-6,8-dihydro-2H,7H-spiro[furo[2,3-e]isoindole-3,4′-piperidin]-7-yl)piperidine-2,6-dione] | > 500 | 40 to 60 |
| CC(C)(c1ccccc1)n1cc(CN2CCC3(CC2)COc2c3ccc3c2CN([C@H]2CCC(=O)NC2=O)C3=O)cn1 [Compound A346, (S)-3-(6-oxo-1′-((1-(2-phenylpropan-2-yl)-1H-pyrazol-4-yl)methyl)-6,8-dihydro-2H,7H-spiro[furo[2,3-e]isoindole-3,4′-piperidin]-7-yl)piperidine-2,6-dione] | < 50 | 60 to 80 |
| Cn1ncc2cccc(CN3CCC4(CC3)COc3c4ccc4c3CN(C3CCC(=O)NC3=O)C4=O)c21 (centres unmarked) [Compound A53, 3-(1′-((1-methyl-1H-indazol-7-yl)methyl)-6-oxo-6,8-dihydro-2H,7H-spiro[furo[2,3-e]isoindole-3,4′-piperidin]-7-yl)piperidine-2,6-dione] | > 500 | 40 to 60 |
| O=C1CCC(N2Cc3c(ccc4c3OCC43CCN(Cc4cccs4)CC3)C2=O)C(=O)N1 (centres unmarked) [Compound A182, 3-(6-oxo-1′-(thiophen-2-ylmethyl)-6,8-dihydro-2H,7H-spiro[furo[2,3-e]isoindole-3,4′-piperidin]-7-yl)piperidine-2,6-dione] | > 500 | 40 to 60 |
| O=C1CCC(N2Cc3c(ccc4c3OCC43CCN(Cc4cnn(Cc5ccccc5F)c4)CC3)C2=O)C(=O)N1 (centres unmarked) [Compound A239, 3-(1′-((1-(2-fluorobenzyl)-1H-pyrazol-4-yl)methyl)-6-oxo-6,8-dihydro-2H,7H-spiro[furo[2,3-e]isoindole-3,4′-piperidin]-7-yl)piperidine-2,6-dione] | < 50 | 60 to 80 |
| COc1cccc(CN2CCC3(CC2)COc2c3ccc3c2CN(C2CCC(=O)NC2=O)C3=O)c1 (centres unmarked) [Compound A212, 3-(1′-(3-methoxybenzyl)-6-oxo-6,8-dihydro-2H,7H-spiro[furo[2,3-e]isoindole-3,4′-piperidin]-7-yl)piperidine-2,6-dione] | > 500 | 40 to 60 |
| O=C1CCC(N2Cc3c(ccc4c3OCC43CCN(Cc4cccc5cc[nH]c45)CC3)C2=O)C(=O)N1 (centres unmarked) [Compound A59, 3-(1′-((1H-indol-7-yl)methyl)-6-oxo-6,8-dihydro-2H,7H-spiro[furo[2,3-e]isoindole-3,4′-piperidin]-7-yl)piperidine-2,6-dione] | 50 to 200 | > 80 |
| O=C1CCC(N2Cc3c(ccc4c3OCC43CCN(Cc4cccc(-n5ccnc5)c4)CC3)C2=O)C(=O)N1 (centres unmarked) [Compound A108, 3-(1′-(3-(1H-imidazol-1-yl)benzyl)-6-oxo-6,8-dihydro-2H,7H-spiro[furo[2,3-e]isoindole-3,4′-piperidin]-7-yl)piperidine-2,6-dione] | > 500 | 40 to 60 |
| O=C1CCC(N2Cc3c(ccc4c3OCC43CCN(Cc4cccc5nccnc45)CC3)C2=O)C(=O)N1 (centres unmarked) [Compound A47, 3-(6-oxo-1′-(quinoxalin-5-ylmethyl)-6,8-dihydro-2H,7H-spiro[furo[2,3-e]isoindole-3,4′-piperidin]-7-yl)piperidine-2,6-dione] | > 500 | 40 to 60 |
| Cn1nccc1-c1cccc(CN2CCC3(CC2)COc2c3ccc3c2CN(C2CCC(=O)NC2=O)C3=O)c1 (centres unmarked) [Compound A144, 3-(1′-(3-(1-methyl-1H-pyrazol-5-yl)benzyl)-6-oxo-6,8-dihydro-2H,7H-spiro[furo[2,3-e]isoindole-3,4′-piperidin]-7-yl)piperidine-2,6-dione] | 200 to 500 | 40 to 60 |
| O=C1CCC(N2Cc3c(ccc4c3OCC43CCN(Cc4ccn(-c5ccccc5)n4)CC3)C2=O)C(=O)N1 (centres unmarked) [Compound A251, 3-(6-oxo-1′-((1-phenyl-1H-pyrazol-3-yl)methyl)-6,8-dihydro-2H,7H-spiro[furo[2,3-e]isoindole-3,4′-piperidin]-7-yl)piperidine-2,6-dione] | > 500 | < 40 |
| CC(F)(F)c1ccc(CN2CCC3(CC2)COc2c3ccc3c2CN(C2CCC(=O)NC2=O)C3=O)cc1 (centres unmarked) [Compound A30, 3-(1′-(4-(1,1-difluoroethyl)benzyl)-6-oxo-6,8-dihydro-2H,7H-spiro[furo[2,3-e]isoindole-3,4′-piperidin]-7-yl)piperidine-2,6-dione] | > 500 | < 40 |
| O=C1CCC(N2Cc3c(ccc4c3OCC43CCN(Cc4cncc(Cl)c4)CC3)C2=O)C(=O)N1 (centres unmarked) [Compound A248, 3-(1′-((5-chloropyridin-3-yl)methyl)-6-oxo-6,8-dihydro-2H,7H-spiro[furo[2,3-e]isoindole-3,4′-piperidin]-7-yl)piperidine-2,6-dione] | > 500 | < 40 |
